Data published in patent publication US6355799B1, “Substituted benzene compounds, process for their preparation, and herbicidal and defoliant compositions containing them” (ISK Americas Incorporated, priority 1997, dated 2002).

Columns and labels:
Assay type in all cases: in vivo
[1] = system: redroot pigweed (Amaranthus retroflexus, AMARE); assay: Pre-emerge test, greenhouse herbicide activity screening; conditions: rating scale 0-100, 14 days after application
How it was run: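 Compounds in acetone were track-sprayed at 15-1000 g ai/ha (187 l/ha) on sandy loam pots: pre-emerge one day after seeding, post-emerge at 2-3 leaf stage with 0.25% v/v non-ionic surfactant. Phytotoxicity was rated 14 days later on a 0 (no damage) to 100 (complete death) scale.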

[2] = system: upland rice (Oryza sp., var. Tebonnet, RICE); assay: Post-emerge test, crop safety; conditions: rating scale 0-100 (0 no damage, 100 complete death), 14 days after application
How it was run: (§1)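 Sandy loam pots; pre-emerge: sown 1 d pre-spray, surface-watered after, then bottom-watered. Post-emerge: sown 8–21 d before, 2–3 leaf stage, + 0.25% v/v NIS, bottom-watered. Acetone, 187 l/ha track spray, 15–1000 g ai/ha. 0–100 injury score, day 14.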

[3] = system: field corn (Zea mays L., var. Dekalb 535, CORN); assay: Post-emerge test, crop safety; conditions: rating scale 0-100 (0 no damage, 100 complete death), 14 days after application
How it was run: as §1

[4] = system: upland rice (Oryza sp., var. Tebonnet, RICE); assay: Pre-emerge test, crop safety; conditions: rating scale 0-100, 14 days after application
How it was run: (§2)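 Applied at 15–1000 g ai/ha from acetone in 187 l/ha spray volume. Post-emergence applications included 0.25% v/v non-ionic surfactant and reached plants sown 8–21 days before. Pre-emergence applications were incorporated by surface watering. Efficacy or crop damage was rated on a 0–100 scale after 14 days.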

[5] = system: field corn (Zea mays L., var. Dekalb 535, CORN); assay: Pre-emerge test, crop safety; conditions: rating scale 0-100, 14 days after application
How it was run: as §2

[6] = system: ivyleaf morningglory (Ipomoea hederacea, IPOHE); assay: Post-emerge test, greenhouse herbicide activity screening; conditions: rating scale 0-100 (0 no damage, 100 complete death), 14 days after application
How it was run: (§3)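 Compounds in acetone were track-sprayed at 15–1000 g ai/ha: pre-emergence onto soil sown the previous day, then top-watered to incorporate and later bottom-watered; post-emergence onto 2–3 leaf plants with 0.25% v/v surfactant, bottom-watered only. Ratings on a 0–100 phytotoxicity scale were taken at day 14.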

[7] = system: large crabgrass (Digitaria sanguinalis, DIGSA); assay: as above; conditions: rating scale 0-100 (0 no damage, 100 complete death), 14 days after application
How it was run: as §3

[8] = system: lambsquarters (Chenopodium album, CHEAL); assay: as above; conditions: rating scale 0-100 (0 no damage, 100 complete death), 14 days after application
How it was run: as §3

[9] = system: johnsongrass (Sorghum halepense, SORHA); assay: as above; conditions: rating scale 0-100 (0 no damage, 100 complete death), 14 days after application
How it was run: as §3

[10] = system: redroot pigweed (Amaranthus retroflexus, AMARE); assay: as above; conditions: rating scale 0-100 (0 no damage, 100 complete death), 14 days after application
How it was run: as §3

[11] = system: sicklepod (Cassia obtusifolia, CASOB); assay: as above; conditions: rating scale 0-100 (0 no damage, 100 complete death), 14 days after application
How it was run: as §3

[12] = system: velvetleaf (Abutilon theophrasti, ABUTH); assay: as above; conditions: rating scale 0-100 (0 no damage, 100 complete death), 14 days after application
How it was run: as §3

[13] = system: green foxtail (Setaria viridis, SETVI); assay: as above; conditions: rating scale 0-100 (0 no damage, 100 complete death), 14 days after application
How it was run: as §3

[14] = system: barnyardgrass (Echinochloa crus-galli, ECHCG); assay: as above; conditions: rating scale 0-100 (0 no damage, 100 complete death), 14 days after application
How it was run: as §3

[15] = system: ivyleaf morningglory (Ipomoea hederacea, IPOHE); assay: Pre-emerge test, greenhouse herbicide activity screening; conditions: rating scale 0-100, 14 days after application
How it was run: as §1

[16] = system: large crabgrass (Digitaria sanguinalis, DIGSA); assay: as above; conditions: rating scale 0-100, 14 days after application
How it was run: as §1

[17] = system: lambsquarters (Chenopodium album, CHEAL); assay: as above; conditions: rating scale 0-100, 14 days after application
How it was run: as §1

[18] = system: johnsongrass (Sorghum halepense, SORHA); assay: as above; conditions: rating scale 0-100, 14 days after application
How it was run: as §1

[19] = system: sicklepod (Cassia obtusifolia, CASOB); assay: as above; conditions: rating scale 0-100, 14 days after application
How it was run: as §1

[20] = system: velvetleaf (Abutilon theophrasti, ABUTH); assay: as above; conditions: rating scale 0-100, 14 days after application
How it was run: as §1

[21] = system: green foxtail (Setaria viridis, SETVI); assay: as above; conditions: rating scale 0-100, 14 days after application
How it was run: as §1

[22] = system: barnyardgrass (Echinochloa crus-galli, ECHCG); assay: as above; conditions: rating scale 0-100, 14 days after application
How it was run: as §1

In the case of `CCCCCCOC(=O)C(C)(Cl)Cc1c(OC)c(Cl)cc(F)c1-n1c(=O)cc(C(F)(F)F)n(C)c1=O` (centres unmarked) [14-38], the “Pre-emerge herbicidal activity, phytotoxicity rating AMARE” value ([1]; 63 g ai/ha) was 99, the “Pre-emerge herbicidal activity, phytotoxicity rating AMARE” value ([1]; 250 g ai/ha) was 100 and the “Post-emerge phytotoxicity rating RICE (crop damage)” value ([2]; Rate 63 g ai/ha) was 0. The “Post-emerge phytotoxicity rating RICE (crop damage)” value ([2]; Rate 250 g ai/ha) was 40, the “Post-emerge phytotoxicity rating CORN (crop damage)” value ([3]; Rate 63 g ai/ha) was 50 and the “Post-emerge phytotoxicity rating CORN (crop damage)” value ([3]; Rate 250 g ai/ha) was 100. The “Pre-emerge phytotoxicity rating, crop damage RICE” value ([4]; 63 g ai/ha) was 0, the “Pre-emerge phytotoxicity rating, crop damage RICE” value ([4]; 250 g ai/ha) was 30 and the “Pre-emerge phytotoxicity rating, crop damage CORN” value ([5]; 63 g ai/ha) was 0. For the same compound, the “Pre-emerge phytotoxicity rating, crop damage CORN” value ([5]; 250 g ai/ha) was 0, the “Post-emerge Herbicidal Activity, phytotoxicity rating IPOHE” value ([6]; Rate 63 g ai/ha) was 70 and the “Post-emerge Herbicidal Activity, phytotoxicity rating IPOHE” value ([6]; Rate 250 g ai/ha) was 70. For the same compound, the “Post-emerge Herbicidal Activity, phytotoxicity rating DIGSA” value ([7]; Rate 63 g ai/ha) was 95, the “Post-emerge Herbicidal Activity, phytotoxicity rating DIGSA” value ([7]; Rate 250 g ai/ha) was 100 and the “Post-emerge Herbicidal Activity, phytotoxicity rating CHEAL” value ([8]; Rate 63 g ai/ha) was 100. The “Post-emerge Herbicidal Activity, phytotoxicity rating CHEAL” value ([8]; Rate 250 g ai/ha) was 100, the “Post-emerge Herbicidal Activity, phytotoxicity rating SORHA” value ([9]; Rate 63 g ai/ha) was 0 and the “Post-emerge Herbicidal Activity, phytotoxicity rating SORHA” value ([9]; Rate 250 g ai/ha) was 30. The “Post-emerge Herbicidal Activity, phytotoxicity rating AMARE” value ([10]; Rate 63 g ai/ha) was 100, the “Post-emerge Herbicidal Activity, phytotoxicity rating AMARE” value ([10]; Rate 250 g ai/ha) was 100 and the “Post-emerge Herbicidal Activity, phytotoxicity rating CASOB” value ([11]; Rate 63 g ai/ha) was 0. For the same compound, the “Post-emerge Herbicidal Activity, phytotoxicity rating CASOB” value ([11]; Rate 250 g ai/ha) was 0, the “Post-emerge Herbicidal Activity, phytotoxicity rating ABUTH” value ([12]; Rate 63 g ai/ha) was 100 and the “Post-emerge Herbicidal Activity, phytotoxicity rating ABUTH” value ([12]; Rate 250 g ai/ha) was 100. For the same compound, the “Post-emerge Herbicidal Activity, phytotoxicity rating SETVI” value ([13]; Rate 63 g ai/ha) was 90, the “Post-emerge Herbicidal Activity, phytotoxicity rating SETVI” value ([13]; Rate 250 g ai/ha) was 100 and the “Post-emerge Herbicidal Activity, phytotoxicity rating ECHCG” value ([14]; Rate 63 g ai/ha) was 100. For the same compound, the “Post-emerge Herbicidal Activity, phytotoxicity rating ECHCG” value ([14]; Rate 250 g ai/ha) was 100, the “Pre-emerge herbicidal activity, phytotoxicity rating IPOHE” value ([15]; 63 g ai/ha) was 0 and the “Pre-emerge herbicidal activity, phytotoxicity rating IPOHE” value ([15]; 250 g ai/ha) was 0. For the same compound, the “Pre-emerge herbicidal activity, phytotoxicity rating DIGSA” value ([16]; 63 g ai/ha) was 0, the “Pre-emerge herbicidal activity, phytotoxicity rating DIGSA” value ([16]; 250 g ai/ha) was 90 and the “Pre-emerge herbicidal activity, phytotoxicity rating CHEAL” value ([17]; 63 g ai/ha) was 90. The “Pre-emerge herbicidal activity, phytotoxicity rating CHEAL” value ([17]; 250 g ai/ha) was 100, the “Pre-emerge herbicidal activity, phytotoxicity rating SORHA” value ([18]; 63 g ai/ha) was 0 and the “Pre-emerge herbicidal activity, phytotoxicity rating SORHA” value ([18]; 250 g ai/ha) was 0. The “Pre-emerge herbicidal activity, phytotoxicity rating CASOB” value ([19]; 63 g ai/ha) was 0, the “Pre-emerge herbicidal activity, phytotoxicity rating CASOB” value ([19]; 250 g ai/ha) was 0 and the “Pre-emerge herbicidal activity, phytotoxicity rating ABUTH” value ([20]; 63 g ai/ha) was 40. For the same compound, the “Pre-emerge herbicidal activity, phytotoxicity rating ABUTH” value ([20]; 250 g ai/ha) was 100, the “Pre-emerge herbicidal activity, phytotoxicity rating SETVI” value ([21]; 63 g ai/ha) was 0 and the “Pre-emerge herbicidal activity, phytotoxicity rating SETVI” value ([21]; 250 g ai/ha) was 80. For the same compound, the “Pre-emerge herbicidal activity, phytotoxicity rating ECHCG” value ([22]; 63 g ai/ha) was 0 and the “Pre-emerge herbicidal activity, phytotoxicity rating ECHCG” value ([22]; 250 g ai/ha) was 70.
